Data: paper PMC10584170, “Machine learning-based phenotypic imaging to characterise the targetable biology of Plasmodium falciparum male gametocytes for the development of transmission-blocking antimalarials” (PLOS Pathogens, 2023)
Like-named read-outs stand apart in the source and are kept apart here.

Assays:
[1] = test system: P. falciparum female gametocytes; assay: P. falciparum Dual Gamete Formation Assay (PfDGFA), female readout (Pfs25-positive female gametes); type: cell-based, Plasmodium falciparum NF54; details: for Selectivity ratio F: HepG2 Tox50 versus female IC50; for Average inhibition female (%) / % inhibition female (individual replicates) R1 / % inhibition female (individual replicates) R3 / % inhibition female (individual replicates) R4 / inhibition at 2 µM: 24h preincubation with gametocytes; for IC50: PfDGFA, 24 h incubation with gametocytes before induction, female gamete readout, read-out: Female IC50; for HitlevelF: number of replicates with >50% inhibition in the female readout
Outline: (§1)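 Read-outs are automated image counts of exflagellation centres (brightfield, 10 frames over 1 s) and Pfs25-positive female gametes (Cy3 fluorescence).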

[2] = test system: P. falciparum male gametocytes; assay: P. falciparum Dual Gamete Formation Assay (PfDGFA), male readout (exflagellation); type: cell-based, Plasmodium falciparum NF54; details: for Selectivity Ratio M: HepG2 Tox50 versus male IC50; for Average inhibition male (%) / % inhibition male (individual replicates) R1 / % inhibition male (individual replicates) R3 / % inhibition male (individual replicates) R4 / inhibition at 2 µM: 24h preincubation with gametocytes; for % inhibition male (individual replicates) R3: replicate R3; for IC50: PfDGFA, 24 h incubation with gametocytes before induction, exflagellation readout, read-out: Male IC50; for HitlevelM: number of replicates with >50% inhibition in the male readout
Outline: as §1

[3] = test system: HepG2 cells; assay: HepG2 cytotoxicity counter-screen; details: cytotoxic activity against HepG2 cells
[4] = PfDGFA at 2µM, average of replicates

SMILES	Selectivity ratio F [1]	Average inhibition female (%) [1, 4]	% inhibition female (individual replicates) R1 ([1]; PfDGFA at 2µM, replicate R1)	% inhibition female (individual replicates) R3 ([1]; PfDGFA at 2µM, replicate R3)	% inhibition female (individual replicates) R4 ([1]; PfDGFA at 2µM, replicate R4)	IC50 [1]	HitlevelF ([1]; 2µM)	Selectivity Ratio M [2]	Average inhibition male (%) [2, 4]	% inhibition male (individual replicates) R1 ([2]; PfDGFA at 2µM, replicate R1)	IC50 [2]	Tox50 [3]	Average inhibition female (%) ([1]; 2µM, average of replicates)	% inhibition female (individual replicates) R1 ([1]; 2µM, replicate R1)	% inhibition female (individual replicates) R3 ([1]; 2µM, replicate R3)	% inhibition female (individual replicates) R4 ([1]; 2µM, replicate R4)	Average inhibition male (%) ([2]; 2µM, average of replicates)	% inhibition male (individual replicates) R1 ([2]; 2µM, replicate R1)	% inhibition male (individual replicates) R3 ([2]; 2µM)	% inhibition male (individual replicates) R4 ([2]; 2µM, replicate R4)	other results
CCCCOc1c(CCNCCCCNCCc2cc(OC)c3ccccc3c2OCCCC)cc(OC)c2ccccc12.CS(=O)(=O)O [TCMDC-137848]	2.45	42.4%	32.5%	23.0%	45.3%	1.29 µM	1	2.01	82.6%	89.8%	1.57 µM	3.16 µM	–	–	–	–	–	–	–	–	% inhibition male (individual replicates) R3 ([2]; PfDGFA at 2µM): 50.4%; % inhibition male (individual replicates) R4 ([2]; PfDGFA at 2µM, replicate R4): 92.9%; HitlevelM ([2]; 2µM): 4
CS(=O)(=O)O.FC(F)(F)COc1ccc(CNCCCCCCNCc2ccc(OCC(F)(F)F)c3ccccc23)c2ccccc12 [TCMDC-137853]	2.44	–	–	–	–	0.52 µM	–	4.06	–	–	0.31 µM	1.26 µM	50.4%	38.4%	35.3%	42.3%	98.2%	97.9%	96.8%	101.6%	–
COc1c(CCNCCCCNCCc2cc(Cl)c3ccccc3c2OC)cc(Cl)c2ccccc12.CS(=O)(=O)O [TCMDC-137869]	2.39	–	–	–	–	1.25 µM	–	3.25	–	–	0.92 µM	2.99 µM	93.4%	93.5%	100.2%	88.2%	96.4%	99.7%	90.8%	101.9%	–
Oc1cccc(CNCCCN(Cc2ccccc2)c2ccccc2)c1 [TCMDC-137875]	1.79	–	–	–	–	–	–	13	–	–	–	13.84 µM	–	–	–	–	–	–	–	–	inhibition at 2 µM ([1]; Plasmodium falciparum, 2µM, average of replicates, read-out: Average inhibition female (%)): 33.5%; inhibition at 2 µM ([1]; Plasmodium falciparum, 2µM, replicate R1, read-out: % inhibition female (individual replicates) R1): 43.5%; inhibition at 2 µM ([1]; Plasmodium falciparum, 2µM, replicate R2, read-out: % inhibition female (individual replicates) R2): 32%; inhibition at 2 µM ([1]; Plasmodium falciparum, 2µM, replicate R3, read-out: % inhibition female (individual replicates) R3): 28.3%; inhibition at 2 µM ([1]; Plasmodium falciparum, 2µM, replicate R4, read-out: % inhibition female (individual replicates) R4): 30.2%; IC50 ([1]; Plasmodium falciparum): 7.74 µM; inhibition at 2 µM ([2]; Plasmodium falciparum, 2µM, average of replicates, read-out: Average inhibition male (%)): 97.7%; inhibition at 2 µM ([2]; Plasmodium falciparum, 2µM, replicate R1, read-out: % inhibition male (individual replicates) R1): 96.8%; inhibition at 2 µM ([2]; Plasmodium falciparum, 2µM, replicate R2, read-out: % inhibition male (individual replicates) R2): 93.7%; inhibition at 2 µM ([2]; Plasmodium falciparum, 2µM, replicate R4, read-out: % inhibition male (individual replicates) R4): 103%; IC50 ([2]; Plasmodium falciparum): 1.06 µM
CC(=NNC(=S)NCCc1ccccn1)c1ccccn1 [TCMDC-137895]	2.26	–	–	–	–	0.51 µM	–	2.92	–	–	0.39 µM	1.15 µM	79.8%	58.7%	98.6%	74.6%	93.4%	86.5%	96.2%	94.6%	–
CN(CCCNCc1cccc2ccccc12)CCCNCc1cccc2ccccc12.Cl [TCMDC-137905]	4.08	42.5%	35.1%	30.8%	35.6%	1.46 µM	1	6.46	87.5%	87.4%	0.92 µM	5.94 µM	–	–	–	–	–	–	–	–	% inhibition male (individual replicates) R3 ([2]; PfDGFA at 2µM): 74.8%; % inhibition male (individual replicates) R4 ([2]; PfDGFA at 2µM, replicate R4): 93.6%; HitlevelM ([2]; 2µM): 4
